In brackets after ≈: the same amount, converted by molar mass. Structures can show the parent of a compound that is named as a salt. Where two headings read alike, the source gives them in different places.
How the values were obtained:
[1] = test system: Staphylococcus aureus; assay: Disc plate assay, zone of inhibition; format: cell-based; conditions: for zone of inhibition at 3000 µg/mL: read-out: Zone of Inhibition (mm. diam.)
[2] = test system: Micrococcus luteus; assay: Disc plate assay, zone of inhibition; format: cell-based; conditions: for zone of inhibition at 3000 µg/mL: read-out: Zone of Inhibition (mm. diam.)
[3] = test system: Proteus vulgaris; assay: Disc plate assay, zone of inhibition; format: cell-based
[4] = test system: Pseudomonas solanacearum; assay: microbe, parasite or virus in culture; format: cell-based; conditions: Ralstonia solanacearum; for zone of inhibition at 3000 µg/mL: read-out: Zone of Inhibition (mm. diam.)
[5] = test system: Bacillus subtilis; assay: Disc plate assay, zone of inhibition; format: cell-based; conditions: for zone of inhibition at 3000 µg/mL: read-out: Zone of Inhibition (mm. diam.)
[6] = test system: Bacillus stearothyermophilus; assay: Disc plate assay, zone of inhibition; format: cell-based; conditions: for zone of inhibition at 3000 µg/mL: read-out: Zone of Inhibition (mm. diam.)
[7] = test system: Escherichia coli; assay: Disc plate assay, zone of inhibition; format: cell-based; conditions: for zone of inhibition at 3000 µg/mL: read-out: Zone of Inhibition (mm. diam.)
[8] = test system: Candida albicans; assay: Disc plate assay, zone of inhibition; format: cell-based
Protocol: (§1) The 7-acylamino-3-azido-3-cephem-4-carboxylic acids and the salts thereof inhibit the growth of bacteria pathogenic to man and animals. […] For example, 7β-(2-thienylacetamido)-3-azido-3-cephem-4-carboxylic acid inhibited the growth of various organisms as shown in the following Table 1.
(§2) ^1 concentration 1 mg./ml.
(§3) The 3-amino-2-substituted-3-cephem compounds (formula 5) as the free acids or salts thereof and the bicyclo nonenes (formula 6) as the free acids or salts thereof are antibacterial agents which inhibit the growth of bacteria pathogenic to man and animals. In Table 3 below the in vitro antibacterial properties of the three isomeric products represented by formulae 5 and 6 obtained in the disc-plate method is tabulated.

[9] = test system: Streptococcus pyogenes; assay: Agar dilution method, MIC; format: cell-based; conditions: strain C203
[10] = test system: Staphylococcus aureus; assay: Agar dilution method, MIC; format: cell-based
[11] = test system: Serratia; assay: Agar dilution method, MIC; format: cell-based; conditions: strains of Serratia
[12] = test system: Enterobacter cloacae; assay: Agar dilution method, MIC; format: cell-based
[13] = test system: Escherichia coli; assay: Agar dilution method, MIC; format: cell-based
[14] = test system: Proteus; assay: Agar dilution method, MIC; format: cell-based; conditions: strains of Proteus
[15] = test system: Pseudomonas; assay: Agar dilution method, MIC; format: cell-based; conditions: strains of Pseudomonas
[16] = test system: Klebsiella pneumoniae; assay: Agar dilution method, MIC; format: cell-based
[17] = test system: Salmonella gallinarum; assay: Disc plate assay, zone of inhibition; format: cell-based; conditions: Salmonella enterica, concentration 1 mg./ml.
Protocol: as §1, §2

[18] = test system: Saccharomyces postorianus; assay: Disc plate assay, zone of inhibition; format: cell-based; conditions: concentration 1 mg./ml.
Protocol: as §1, §2

[19] = test system: Serratia marcescens; assay: Disc plate assay, zone of inhibition; format: cell-based; conditions: concentration 1 mg./ml.
Protocol: as §1, §2

[20] = test system: Pseudomonas aeruginosa; assay: Disc plate assay, zone of inhibition; format: cell-based; conditions: concentration 1 mg./ml.
Protocol: as §1, §2

[21] = test system: Streptococcus pneumoniae; assay: Agar dilution method, MIC; format: cell-based; conditions: strain Park
[22] = test system: Enterobacter aerogenes; assay: Agar dilution method, MIC; format: cell-based
[23] = test system: Haemophilus influenzae; assay: Agar dilution method, MIC; format: cell-based
[24] = test system: Streptococcus epidermidis; assay: Agar dilution method, MIC; format: cell-based
[25] = test system: Salmonella typhi; assay: Agar dilution method, MIC
[26] = test system: Trichophyton mentagrophytes; assay: Disc plate assay, zone of inhibition; format: cell-based
Protocol: as §1, §2, §3

[27] = test system: Streptococcus sp. D; assay: Agar dilution method, MIC; format: cell-based

COC1S[C@@H]2[C@H](NC(=O)Cc3cccs3)C(=O)N2C(C(=O)[O-])=C1N.[Na+] (stereo partly drawn) [Compound C, Sodium 7β-[(2-thienylacetyl)amino]-2-methoxy-3-amino-3-cephem-4-carboxylate]
zone of inhibition at 3000 µg/mL ([1]; Staphylococcus aureus): 29 mm | zone of inhibition at 3000 µg/mL ([2]; Micrococcus luteus): 24 mm | Zone of Inhibition (mm. diam.) ([3]; Concentration: 3 mg./ml.): tr. | zone of inhibition at 3000 µg/mL [4]: 11 mm | zone of inhibition at 3000 µg/mL ([5]; Bacillus subtilis): 30 mm | zone of inhibition at 3000 µg/mL ([6]; Bacillus): 36 mm | zone of inhibition at 3000 µg/mL ([7]; Escherichia coli): 30 mm

COC1=NCS[C@@H]2[C@H](NC(=O)Cc3cccs3)C(=O)N2[C@H]1C(=O)O [Compound B, [2R-(2α,7α,8β)],-3-Methoxy-9-oxo-8-[(2-thienylacetyl)-amino]-6-thia-1,4-diaza[5.2.0]non-3-ene-2-carboxylic acid sodium salt]
zone of inhibition at 3000 µg/mL ([1]; Staphylococcus aureus, Concentration: 3 mg./ml.): 29 mm | zone of inhibition at 3000 µg/mL ([2]; Micrococcus luteus, Concentration: 3 mg./ml.): 25 mm | zone of inhibition at 3000 µg/mL [4]: 12 mm | zone of inhibition at 3000 µg/mL ([5]; Bacillus subtilis, Concentration: 3 mg./ml.): 27 mm | zone of inhibition at 3000 µg/mL ([6]; Bacillus, Concentration: 3 mg./ml.): 34 mm | zone of inhibition at 3000 µg/mL ([8]; Candida albicans, Concentration: 3 mg./ml., read-out: Zone of Inhibition (mm. diam.)): 13 mm | zone of inhibition at 3000 µg/mL ([7]; Escherichia coli, Concentration: 3 mg./ml.): 25 mm

[N-]=[N+]=NC1=C(C(=O)O)N2C(=O)[C@@H](NC(=O)Cc3cccs3)[C@H]2SC1 [7β-(2-Thienylacetamido)-3-azido-3-cephem-4-carboxylic acid]
zone of inhibition at 1000 µg/mL ([1]; Staphylococcus aureus, concentration 1 mg./ml.): 30 mm | MIC [9]: 0.5 µg/mL (≈ 1.37 µM) | MIC ([10]; strain S13E): 64 µg/mL (≈ 175 µM) | MIC ([10]; strain V41, read-out: MIC): 64 µg/mL (≈ 175 µM) | MIC ([10]; strain X1.1, read-out: MIC): 8 µg/mL (≈ 21.9 µM) | MIC ([10]; strain X400, read-out: MIC): 128 µg/mL (≈ 350 µM) | MIC [11]: ≥ 128 µg/mL | MIC ([12]; Enterobacter cloacae, strain EB5, read-out: MIC): 128 µg/mL (≈ 350 µM) | MIC ([12]; strain 265A): 128 µg/mL (≈ 350 µM) | MIC [13]: 128 µg/mL (≈ 350 µM) | MIC ([13]; strain EC14, read-out: MIC): 16 µg/mL (≈ 43.8 µM) | MIC ([13]; strain N10, read-out: MIC): 64 µg/mL (≈ 175 µM) | MIC [14]: ≥ 128 µg/mL | MIC [15]: ≥ 128 µg/mL | zone of inhibition at 1000 µg/mL ([2]; Micrococcus luteus, concentration 1 mg./ml.): 23 mm | zone of inhibition at 1000 µg/mL ([3]; Proteus vulgaris, concentration 1 mg./ml.): 25 mm | MIC [16]: 128 µg/mL (≈ 350 µM) | MIC ([16]; strain X26, read-out: MIC): 4 µg/mL (≈ 10.9 µM) | MIC ([16]; strain X68, read-out: MIC): 16 µg/mL (≈ 43.8 µM) | zone of inhibition at 1000 µg/mL [17]: 19 mm | detectable zone of inhibition [18]: failed to produce a detectable zone of inhibition | detectable zone of inhibition [19]: failed to produce a detectable zone of inhibition | detectable zone of inhibition [20]: failed to produce a detectable zone of inhibition | MIC [21]: 0.25 µg/mL (≈ 0.684 µM) | MIC ([22]; Klebsiella aerogenes, strain C32, read-out: MIC): 128 µg/mL (≈ 350 µM) | MIC ([22]; strain EB17): 128 µg/mL (≈ 350 µM) | MIC ([23]; strain 76): 4 µg/mL (≈ 10.9 µM) | MIC ([23]; strain C.L.): 16 µg/mL (≈ 43.8 µM) | zone of inhibition at 1000 µg/mL [4]: 29 mm | MIC ([24]; strain 222): 4 µg/mL (≈ 10.9 µM) | MIC ([24]; strain EP11): 16 µg/mL (≈ 43.8 µM) | MIC ([25]; Salmonella enterica, TYPHI): 16 µg/mL (≈ 43.8 µM) | MIC ([25]; strain 1335): 16 µg/mL (≈ 43.8 µM) | zone of inhibition at 1000 µg/mL ([5]; Bacillus subtilis, concentration 1 mg./ml.): 30 mm | zone of inhibition at 1000 µg/mL ([6]; Bacillus, concentration 1 mg./ml.): 20 mm | detectable zone of inhibition ([26]; concentration 1 mg./ml.): failed to produce a detectable zone of inhibition | detectable zone of inhibition ([8]; concentration 1 mg./ml.): failed to produce a detectable zone of inhibition | MIC ([27]; Streptococcus, strain X66, read-out: MIC): 128 µg/mL (≈ 350 µM) | MIC ([27]; strain 2041): 128 µg/mL (≈ 350 µM) | zone of inhibition at 1000 µg/mL ([7]; Escherichia coli, concentration 1 mg./ml.): 21 mm

COC1=N[C@@H](C(=O)[O-])N2C(=O)[C@H](NC(=O)Cc3cccs3)[C@@H]2SC1.[Na+] [Compound A, [2R-(2α,7α,8β)],-4-Methoxy-9-oxo-8-[(2-thienylacetyl)-amino]-6-thia-1,3-diazabicyclo[5.2.0]non-3-ene-2-carboxylic acid sodium salt]
Zone of Inhibition (mm. diam.) ([1]; Concentration: 3 mg./ml.): 18 mm | Zone of Inhibition (mm. diam.) ([2]; Concentration: 3 mg./ml.): 10 mm | Zone of Inhibition (mm. diam.) ([5]; Concentration: 3 mg./ml.): 15 mm | Zone of Inhibition (mm. diam.) ([6]; Concentration: 3 mg./ml.): 11 mm | Zone of Inhibition (mm. diam.) ([26]; Concentration: 3 mg./ml.): tr. | Zone of Inhibition (mm. diam.) ([7]; Concentration: 3 mg./ml.): 12 mm

— patent US4521598A, “3-Azidocephalosporins” (priority 1983, dated 1985)
